Results: the supplement of paper PMC13380429

Columns and labels:
[1] = test system: A549-ACE2 infected with SARS-CoV-2; assay: cell count relative to DMSO; higher = less toxic; conditions: 24 h
A549-ACE2 [2] = assay: drug-induced phospholipidosis relative to tamoxifen; higher = more phospholipidosis
[3] = test system: A549-ACE2 infected with SARS-CoV-2; assay: SARS-CoV-2 infection rate relative to DMSO; higher = more infection; conditions: 24 h
Vero E6 [4] = assay: drug sensitivity score (DSS) for viability; higher = more toxic; extreme values may be limits of the assay; conditions: 72 h
U2OS [5] = assay: as above; conditions: 72 h
Calu-3 [6] = assay: as above; conditions: 72 h
Caco-2 [7] = assay: as above; conditions: 72 h
HepG2 [8] = assay: as above; conditions: 72 h
Vero E6 [9] = assay: cell viability relative to DMSO; higher = less toxic; conditions: 72 h
U2OS [10] = assay: as above; conditions: 72 h
Calu-3 [11] = assay: as above; conditions: 72 h
Caco-2 [12] = assay: as above; conditions: 72 h
HepG2 [13] = assay: as above; conditions: 72 h
Vero E6 [14] = assay: relative viability EC50 (midpoint between 100% and the lowest measured viability); higher = less toxic; conditions: 72 h
U2OS [15] = assay: as above; conditions: 72 h
Calu-3 [16] = assay: as above; conditions: 72 h
HepG2 [17] = assay: as above; conditions: 72 h
A549-ACE2 [18] = assay: phospholipidosis EC50; higher = less potent phospholipidosis inducer
[19] = test system: A549-ACE2 infected with SARS-CoV-2; assay: morphology score (similarity to uninfected cells); higher = more like uninfected cells; conditions: 24 h
Caco-2 [20] = assay: relative viability EC50 (midpoint between 100% and the lowest measured viability); higher = less toxic; conditions: 72 h

COc1ccc(NC(=O)c2ccc(-c3ccc(-c4noc(C)n4)cc3C)cc2)cc1OCCN(C)C
Conditions | SARS-CoV-2 infection rate [%] | cell count [%] | cell viability [%] | morphology score | phospholipidosis EC50 [nM]
A549-ACE2 [18], 24 h | – | – | – | – | 1000
A549-ACE2 [18], 48 h | – | – | – | – | 2130
A549-ACE2 [18], 72 h | – | – | – | – | 3020
Caco-2 [12], 1 nM | – | – | 101 | – | –
Caco-2 [12], 10 nM | – | – | 102 | – | –
Caco-2 [12], 100 nM | – | – | 104 | – | –
Caco-2 [12], 1000 nM | – | – | 92.4 | – | –
Caco-2 [12], 10000 nM | – | – | 54 | – | –
Calu-3 [11], 1 nM | – | – | 101 | – | –
Calu-3 [11], 10 nM | – | – | 102 | – | –
Calu-3 [11], 100 nM | – | – | 105 | – | –
Calu-3 [11], 1000 nM | – | – | 92.5 | – | –
Calu-3 [11], 10000 nM | – | – | 11.2 | – | –
HepG2 [13], 1 nM | – | – | 121 | – | –
HepG2 [13], 10 nM | – | – | 95.5 | – | –
HepG2 [13], 100 nM | – | – | 109 | – | –
HepG2 [13], 1000 nM | – | – | 90.1 | – | –
HepG2 [13], 10000 nM | – | – | 6.6 | – | –
U2OS [10], 1 nM | – | – | 101 | – | –
U2OS [10], 10 nM | – | – | 105 | – | –
U2OS [10], 100 nM | – | – | 101 | – | –
U2OS [10], 1000 nM | – | – | 102 | – | –
U2OS [10], 10000 nM | – | – | 44.7 | – | –
Vero E6 [9], 1 nM | – | – | 98.1 | – | –
Vero E6 [9], 10 nM | – | – | 98 | – | –
Vero E6 [9], 100 nM | – | – | 96.7 | – | –
Vero E6 [9], 1000 nM | – | – | 93.1 | – | –
Vero E6 [9], 10000 nM | – | – | 20.1 | – | –
[1], 0.1 µM | – | 102 | – | – | –
[1], 0.3 µM | – | 99 | – | – | –
[1], 1 µM | – | 109 | – | – | –
[1], 3 µM | – | 126 | – | – | –
[3], 0.1 µM | 97 | – | – | – | –
[3], 0.3 µM | 95 | – | – | – | –
[3], 1 µM | 82 | – | – | – | –
[3], 3 µM | 26 | – | – | – | –
[19], 0.1 µM | – | – | – | -0.01 | –
[19], 0.3 µM | – | – | – | 0.09 | –
[19], 1 µM | – | – | – | 0.43 | –
[19], 3 µM | – | – | – | 0.77 | –

drug-induced phospholipidosis [%], A549-ACE2 [2]
Conditions | 0.3 µM | 0.833333 µM | 3.33333 µM | 6.66667 µM | 10 µM
24 h | 2.56 | 13.6 | 76.9 | 75.2 | 56
48 h | 4.9 | 6.68 | 68 | 79.2 | –
72 h | 5.85 | 5.56 | 57.7 | 86.2 | –

Conditions | drug sensitivity score | relative viability EC50 [nM]
Caco-2 [7] | 3.7 | –
Calu-3 [6] | 6.1 | –
Calu-3 [16] | – | 2470
HepG2 [8] | 6.8 | –
HepG2 [17] | – | 2290
U2OS [5] | 2.8 | –
U2OS [15] | – | 3330
Vero E6 [4] | 5.5 | –
Vero E6 [14] | – | 2450

NC(=O)c1noc([C@H](CCCC2CCCCC2)CC(=O)NO)n1
Conditions | SARS-CoV-2 infection rate, [3] [%] | cell count, [1] [%] | cell viability, Caco-2 [12] [%] | cell viability, Calu-3 [11] [%] | cell viability, HepG2 [13] [%] | cell viability, U2OS [10] [%] | cell viability, Vero E6 [9] [%] | morphology score, [19]
1 nM | – | – | 97.2 | 106 | 102 | 96.4 | 95.2 | –
10 nM | – | – | 93 | 102 | 108 | 101 | 90.9 | –
100 nM | – | – | 96.9 | 93.8 | 109 | 101 | 93.1 | –
0.3 µM | 102 | 102 | – | – | – | – | – | -0.06
1000 nM | – | – | 88 | 110 | 89.6 | 97.4 | 91.4 | –
3 µM | 98 | 100 | – | – | – | – | – | 0
10 µM | 89 | 102 | – | – | – | – | – | 0.38
10000 nM | – | – | 79.6 | 98.7 | 74.8 | 86.7 | 97 | –
30 µM | 95 | 101 | – | – | – | – | – | 0.25

drug-induced phospholipidosis [%], A549-ACE2 [2]
Conditions | 0.3 µM | 0.833333 µM | 3.33333 µM | 6.66667 µM | 10 µM | 30 µM
24 h | 4.23 | 6.27 | 14.7 | 16.7 | 18.4 | 23.6
48 h | 4.52 | 5.1 | 16.8 | 23.1 | 24.9 | 32.6
72 h | 5.18 | 1.64 | 8.76 | 19.5 | 21 | –

Conditions | drug sensitivity score | relative viability EC50 [nM]
Caco-2 [7] | 1.2 | –
Caco-2 [20] | – | > 10000
Calu-3 [6] | 0 | –
Calu-3 [16] | – | > 10000
HepG2 [8] | 2.2 | –
U2OS [5] | 0.3 | –
U2OS [15] | – | > 10000
Vero E6 [4] | 0 | –
Vero E6 [14] | – | > 10000

NC1(Cc2ccc(Cl)cc2)CCN(c2ncnc3[nH]ccc23)CC1
Conditions | SARS-CoV-2 infection rate [%] | cell count [%] | cell viability [%] | morphology score | phospholipidosis EC50 [nM]
A549-ACE2 [18], 24 h | – | – | – | – | 5250
A549-ACE2 [18], 48 h | – | – | – | – | 7160
A549-ACE2 [18], 72 h | – | – | – | – | 8440
Caco-2 [12], 1 nM | – | – | 93.7 | – | –
Caco-2 [12], 10 nM | – | – | 109 | – | –
Caco-2 [12], 100 nM | – | – | 95.4 | – | –
Caco-2 [12], 1000 nM | – | – | 98.2 | – | –
Caco-2 [12], 10000 nM | – | – | 81.7 | – | –
Calu-3 [11], 1 nM | – | – | 95.4 | – | –
Calu-3 [11], 10 nM | – | – | 99.9 | – | –
Calu-3 [11], 100 nM | – | – | 100 | – | –
Calu-3 [11], 1000 nM | – | – | 105 | – | –
Calu-3 [11], 10000 nM | – | – | 77.5 | – | –
HepG2 [13], 1 nM | – | – | 100 | – | –
HepG2 [13], 10 nM | – | – | 102 | – | –
HepG2 [13], 100 nM | – | – | 94.5 | – | –
HepG2 [13], 1000 nM | – | – | 91.1 | – | –
HepG2 [13], 10000 nM | – | – | 26.3 | – | –
U2OS [10], 1 nM | – | – | 96.9 | – | –
U2OS [10], 10 nM | – | – | 101 | – | –
U2OS [10], 100 nM | – | – | 93 | – | –
U2OS [10], 1000 nM | – | – | 95 | – | –
U2OS [10], 10000 nM | – | – | 52.6 | – | –
Vero E6 [9], 1 nM | – | – | 97.6 | – | –
Vero E6 [9], 10 nM | – | – | 100 | – | –
Vero E6 [9], 100 nM | – | – | 96.8 | – | –
Vero E6 [9], 1000 nM | – | – | 88.5 | – | –
Vero E6 [9], 10000 nM | – | – | 65.3 | – | –
[1], 0.1 µM | – | 104 | – | – | –
[1], 0.3 µM | – | 105 | – | – | –
[1], 1 µM | – | 104 | – | – | –
[1], 3 µM | – | 105 | – | – | –
[3], 0.1 µM | 99 | – | – | – | –
[3], 0.3 µM | 106 | – | – | – | –
[3], 1 µM | 104 | – | – | – | –
[3], 3 µM | 85 | – | – | – | –
[19], 0.1 µM | – | – | – | 0.13 | –
[19], 0.3 µM | – | – | – | -0.05 | –
[19], 1 µM | – | – | – | 0.15 | –
[19], 3 µM | – | – | – | 0.48 | –

drug-induced phospholipidosis [%], A549-ACE2 [2]
Conditions | 0.3 µM | 0.833333 µM | 3.33333 µM | 6.66667 µM | 10 µM | 30 µM
24 h | 2.53 | 6.69 | 24.4 | 64.2 | 86.2 | 95.1
48 h | 0.01 | -2.52 | 9.67 | 37.5 | 65.9 | 86.8
72 h | -2.31 | -5.85 | 5.48 | 20.6 | 47.9 | 73.3

Conditions | drug sensitivity score | relative viability EC50 [nM]
Caco-2 [7] | 0.7 | –
Caco-2 [20] | – | > 10000
Calu-3 [6] | 0.5 | –
Calu-3 [16] | – | > 10000
HepG2 [8] | 5.6 | –
HepG2 [17] | – | 2180
U2OS [5] | 3.3 | –
Vero E6 [4] | 3 | –

OC1=c2ccccc2=C(NC2CCCCC2)/C1=C\c1ccccc1
Conditions | SARS-CoV-2 infection rate, [3] [%] | cell count, [1] [%] | cell viability, Caco-2 [12] [%] | cell viability, Calu-3 [11] [%] | cell viability, HepG2 [13] [%] | cell viability, U2OS [10] [%] | cell viability, Vero E6 [9] [%] | morphology score, [19]
1 nM | – | – | 107 | 89.1 | 95.6 | 98.9 | 93.6 | –
10 nM | – | – | 92 | 82.2 | 104 | 99.4 | 95.2 | –
0.1 µM | 96 | 99 | – | – | – | – | – | -0.03
100 nM | – | – | 96 | 90.1 | 101 | 108 | 96.9 | –
0.3 µM | 99 | 101 | – | – | – | – | – | 0.22
1 µM | 103 | 99 | – | – | – | – | – | -0.06
1000 nM | – | – | 88.3 | 99.5 | 93 | 83 | 91.7 | –
3 µM | 93 | 73 | – | – | – | – | – | 0.11
10000 nM | – | – | 32.8 | 35.8 | 1.2 | 0.1 | 10.5 | –

drug-induced phospholipidosis [%], A549-ACE2 [2]
Conditions | 0.3 µM | 0.833333 µM | 3.33333 µM | 30 µM
24 h | 2.77 | -0.77 | 1.63 | 12.9
48 h | 0.98 | -0.44 | 6.41 | –
72 h | 1.89 | -2.33 | 6.19 | –

Conditions | drug sensitivity score | relative viability EC50 [nM]
Caco-2 [7] | 5.6 | –
Caco-2 [20] | – | 1860
Calu-3 [6] | 3.6 | –
Calu-3 [16] | – | 3100
HepG2 [8] | 6.5 | –
HepG2 [17] | – | 2590
U2OS [5] | 8.3 | –
U2OS [15] | – | 1880
Vero E6 [4] | 6.3 | –
Vero E6 [14] | – | 2400
